From patent US20150094264A1, “USE OF OBESTATIN FOR MUSCLE REGENERATION” (UNIVERSIDADE DE SANTIAGO DE COMPOSTELA, priority 2012, published 2015)
“Also recorded” adds a separate entry of the source.

Assays:
[1] = test system: tibialis anterior muscle in mice where the sciatic nerve has been denervated; assay: Weight reduction of tibialis anterior after denervation of the sciatic nerve (model of muscular atrophy); type: in vivo, Swiss mice; conditions: 300 nmol/kg weight local, 14 days
Method: FIG. 14. Analysis of the weight reduction of the tibialis anterior muscle in mice where the sciatic nerve has been denervated (model of muscular atrophy) under the exogenous administration of obestatin or vehicle (PBS). Swiss mice were used whereon the sciatic nerve was denervated in one of the limbs, using the other as control. The effect of the administration of obestatin (300 nmol/kg weight) or the vehicle (PBS; control) was assessed in the tibialis anterior muscle after 14 days. The data are expressed as % of weight reduction with respect to the control without denervation (n=5 per group; mean±standard error; *, p<0.005).
To study muscular atrophy, the sciatic nerve was denervated using Swiss mice. The denervation of the sciatic nerve was performed under anaesthesia, making an incision in the mid thigh on the lateral face of the rear right limb, separating the muscles and raising the sciatic nerve with surgical forceps. A portion of the nerve was isolated removing a fragment thereof. Finally the incision was closed. These animals were locally administered an injection of obestatin (300 nmol/kg weight) or the corresponding vehicle (PBS; control) in intervals of 24 h during 14 days.

[2] = test system: damaged tibialis anterior of mouse; assay: Immunofluorescence analysis of eMHC expression in damaged tibialis anterior of mouse; type: in vivo, Swiss mice; conditions: 300 nmol/kg weight; 96 h
Method: FIG. 11. Immufluorescence analysis of the effect of the exogenous administration of obestatin (96 h) on eMHC expression in the damaged tibialis anterior of mouse (animal model). Representative images of eMHC expression by immunofluorescence of sections of the tibialis anterior treated with obestatin (300 nmol/kg/24 h) or PBS (control) 96 h after inducing the damage. The upper panels correspond to staining with anti-eMHC antibody and the lower panels to staining with DAPI.
For the tissue immunofluorescence analysis, frozen sections were obtained which were fixed using a buffered solution of PBS-paraformaldehyde during 15 min, washed, permeabilized and blocked with PBT during 30 min, and later incubated with the corresponding primary antibody (anti-eMHC, anti-laminin antibody) diluted in PBT (1:50) during 12 h at 4° C. After three washes with PBS, the tissue sections were incubated with secondary antibody in PBT (1:1000) during 45 min at 37° C. […] The digital images of the cell culture were acquired with a Leica TCS-SP2 confocal microscope.
The mice (30 g; n=50) were maintained in 12 h light-darkness cycled with free access to standard diet and water. To induce the muscle damage, the tibialis anterior muscle (TA) was extracted under anaesthesia and subjected to three cycles of damage due to cold contact applying along the length of the muscle a metal bar cooled in liquid nitrogen. […]

AMPKa = assay: Dephosphorylation/inactivation of AMPKa [pAMPKa(T172)] by obestatin in L6E9 cells, immunoblot; type: cell-based, rat; conditions: obestatin 5 nM; L6E9 myoblasts (both cell models)
Method: FIG. 1. Activation of regulatory enzymes of mitogenesis and myogenesis by obestatin in L6E9 myoblasts and myotubes. Effect of obestatin on activity of regulatory enzymes of the mitogenic capacity (ERK 1/2), metabolic capacity (Akt and AMPK) and myogenic capacity (Akt and p38). Based on a dose-response study, the saturating dose for the maximum enzymatic activation is established for a concentration of 5 nM. […] Inactivation of AMPK is described in both cell models. The activation profile discovers bimodal characteristics for the action of obestatin: 1.—mitogenic activation in myoblasts; and, 2.—myogenic activation. The immunoblots are representative of 6 independent assays. […]
The tissue or cell samples were directly lysed in RIPA buffer [Tris-HCl (pH 7.2), 50 mM; NaCl, 150 mM; EDTA, 1 mM; NP-40, 1% (v/v); Sodium deoxycholate, 0.25% (w/v); protease inhibitors (Sigma); phosphatise inhibitors (Sigma)]. The lysates were clarified by centrifugation (14,000×g during 15 min at 4° C.) and the protein concentration was quantified using QuantiPro™ BCA assay kit (Sigma). […] The immunoreactive bands were detected by chemiluminescence (Pierce ECL Western Blotting Substrate; Thermo Scientific, Ill., USA). […]

ERK 1/2 = assay: Activation of ERK 1/2 [pERK1/2(T202/Y204)] by obestatin in L6E9 myoblasts, immunoblot; type: cell-based, rat
Method: FIG. 1. Activation of regulatory enzymes of mitogenesis and myogenesis by obestatin in L6E9 myoblasts and myotubes. Effect of obestatin on activity of regulatory enzymes of the mitogenic capacity (ERK 1/2), metabolic capacity (Akt and AMPK) and myogenic capacity (Akt and p38). Based on a dose-response study, the saturating dose for the maximum enzymatic activation is established for a concentration of 5 nM. […] Inactivation of AMPK is described in both cell models. The activation profile discovers bimodal characteristics for the action of obestatin: 1.—mitogenic activation in myoblasts; and, 2.—myogenic activation. The immunoblots are representative of 6 independent assays.
(§1) The studies were performed based on the use of L6E9 rat myoblasts which were maintained in growth medium (GM) formed by DMEM (Dulbecco's Modified Eagle Medium) supplemented with 10% fetal bovine serum (FBS), 100 U/mL penicillin, and 100 U/mL streptomycin. For the differentiation, the cells were cultured at 80-100% of confluence in GM and it was replaced for differentiation medium (DM) formed by DMEM supplemented with 2% FBS, 100 U/mL penicillin, and 100 U/mL streptomycin during 6 days.
The tissue or cell samples were directly lysed in RIPA buffer [Tris-HCl (pH 7.2), 50 mM; NaCl, 150 mM; EDTA, 1 mM; NP-40, 1% (v/v); Sodium deoxycholate, 0.25% (w/v); protease inhibitors (Sigma); phosphatise inhibitors (Sigma)]. The lysates were clarified by centrifugation (14,000×g during 15 min at 4° C.) and the protein concentration was quantified using QuantiPro™ BCA assay kit (Sigma). For immunoblot, equal amounts of protein were loaded which were fractionated in SOS-PAGE gels and transferred to nitrocellulose membranes. The immunoreactive bands were detected by chemiluminescence (Pierce ECL Western Blotting Substrate; Thermo Scientific, Ill., USA).
To define the mitogenic and myogenic effect of obestatin, the activation capacity was studied of intracellular targets regulating proliferation (ERK1/2) and/or differentiation (p38 and Akt). […]

L6E9 myoblasts = assay: Mitogenic effect (number of cells) in L6E9 myoblasts in growth medium; type: cell-based, rat
Method: FIG. 2. Mitogenic effect of obestatin in L6E9 myoblasts. Mitogenic effect of different doses of obestatin (0.01-100 nM) in L6E9 myoblasts after 48 hours of stimulation in the presence of growth medium [GM: DMEN+10% FBS]. Co: initial number of cells. Control: number of cells after 48 hours in GM. GM+obestatin: number of cells after 48 hours of stimulation with obestatin in GM. The data are expressed as mean±standard error of 4 independent experiments (*, p<0.05).
as §1
Dose-dependent studies performed on myoblasts with different obestatin concentrations (0.01-100 nM) in GM (proliferative conditions) show a maximum increase in the number of cells at 48 hours post-stimulation at a concentration of 5.0 nM obestatin (˜2.2-increased in relation to the control; FIG. 2).

## obestatin
[1]
  loss of tibialis anterior muscle mass (weight) in relation to vehicle (PBS) controls: reduces the loss of muscle mass
[2]
  eMHC expression by immunofluorescence in relation to controls: significantly increases
AMPKa
  effect on AMPKa phosphorylation in T172 [pAMPKa(T172)]: Inactivation; also recorded: dephosphorylates
ERK 1/2
  obestatin concentration at which activation of ERK 1/2 [pERK1/2(T202/Y204)] was observed: 0.1 nM
ERK 1/2; dose-response
  obestatin concentration at which pERK1/2(T202/Y204) phosphorylation levels reached saturable values: 5 nM
ERK 1/2; obestatin 5 nM
  time post-stimulation of maximum pERK1/2(T202/Y204) levels: 10 min
L6E9 myoblasts; 5.0 nM obestatin, 48 hours post-stimulation, GM (DMEM+10% FBS)
  maximum increase in the number of cells in relation to the control: ~2.2
L6E9 myoblasts; range 0.01-100 nM, 48 hours, GM
  obestatin concentration of maximum increase in the number of cells: 5.0 nM
